# In patent publication US11564955B2, “Composition including, as active ingredient, strain having ability to produce formic acid for preventing or treating obesity or metabolic syndromes caused by obesity” (KOREA FOOD RESEARCH INSTITUTE, priority 2016, dated 2023):
# Tested on: high-fat diet-induced obesity animal models
# Settings: oral formate vs high-fat diet control group
# From the text: In order to investigate whether formic acid actually has an anti-obesity effect, the present inventors orally administered formate into high-fat diet-induced obesity animal models. […] The patent application procedure of the above-described contents is under way, separately from the present disclosure.
smiles,measurement,value
O=CO [formate],blood cholesterol content,significantly reduced
same,blood triglyceride content,significantly reduced
same,body weight increase,inhibited
same,fat cell size,decreased
same,kidney fat weight value,lowered
